Molecules are shown by their SMILES. Bounds are passed on as bounds.

Chain of mu-opioid receptor (P35372 whole entry, species assumed): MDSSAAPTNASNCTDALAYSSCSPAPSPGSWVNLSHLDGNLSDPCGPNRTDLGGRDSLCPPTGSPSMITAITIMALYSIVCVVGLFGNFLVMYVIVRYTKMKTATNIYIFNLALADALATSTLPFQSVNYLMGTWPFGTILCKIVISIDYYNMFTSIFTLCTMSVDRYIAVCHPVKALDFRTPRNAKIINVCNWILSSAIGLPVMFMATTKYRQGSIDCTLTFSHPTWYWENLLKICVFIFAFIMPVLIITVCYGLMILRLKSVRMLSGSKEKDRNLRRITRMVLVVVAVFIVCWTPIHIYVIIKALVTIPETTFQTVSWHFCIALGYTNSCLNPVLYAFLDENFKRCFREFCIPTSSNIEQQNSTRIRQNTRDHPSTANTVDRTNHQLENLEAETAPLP

One assay addresses mu-opioid receptor (Homo sapiens, UniProt P35372). Kind of assay: biochemical. Conditions: […]; class symbol combines EC50 and efficacy; read-out: GTP Activity.
For `CNC1=C(c2nc3ccccc3[nH]2)C(=O)C(C(C)=O)N1c1cc(OC)cc(OC)c1` (stereo not shown) [compound 279], the EC50 was below 100 nM.
Take `COc1cc(OC)cc(N2C(N)=C(c3nc4ccccc4[nH]3)C(=O)C23CCOCC3)c1` [compound 224]: the EC50 lay within 100 to 1000 nM.
Same read-out and setting: with `CNC1=C(c2nc3ccccc3[nH]2)C(=O)[C@@](C)(CCO)N1c1cc(OC)cc(OC)c1` [compound 261] the figure was 100 to 1000 nM; with `CNC1=C(c2nc3ccccc3[nH]2)C(=O)C(C)(CC(C)=O)N1c1cc(OC)cc(OC)c1` (stereo not shown) [compound 276], 100 to 1000 nM; with `CNC1=C(c2nc3ccccc3[nH]2)C(=O)C2(CCC(O)C2)N1c1cc(OC)cc(OC)c1` (stereo not shown) [compound 311], below 100 nM.
`CNC1=C(c2nc3ccccc3[nH]2)C(=O)C2(CCC(=O)C2)N1c1cc(OC)cc(OC)c1` (stereo not shown) [compound 312]: the EC50 was below 100 nM.
The same measure, in the same setting: the value for `COc1cc(OC)cc(N2C(N)=C(c3nc4ccccc4[nH]3)C(=O)C2CCN(C)C)c1` (stereo not shown) [compound 222] was 1000 to 10000 nM; that for `CNC1=C(c2nc3ccccc3[nH]2)C(=O)[C@]2(C[C@H](O)C2)N1c1cc(OC)cc(OC)c1` [compound 260] was 100 to 1000 nM; that for `CNC1=C(c2nc3ccccc3[nH]2)C(=O)C2(CC(=O)C2)N1c1cc(OC)cc(OC)c1` [compound 275] was below 100 nM.
For `CNC1=C(c2nc3ccccc3[nH]2)C(=O)[C@](C)(CO)N1c1cc(OC)cc(OC)c1` [compound 212], the EC50 was below 100 nM.
On to `COc1cc(OC)cc(N2C(N)=C(c3nc4ccccc4[nH]3)C(=O)C2CCN(C)C(C)=O)c1` (stereo not shown) [compound 256], for which the EC50 was in the range of 100 to 1000 nM.
`COc1cc(OC)cc(N2C(N)=C(c3nc4ccccc4[nH]3)C(=O)C2CCN)c1` (stereo not shown) [compound 238]: the EC50 was in the range of 1000 to 10000 nM.
On to `CNC1=C(c2nc3ccccc3[nH]2)C(=O)[C@@H](CNC(=O)COC)N1c1cc(OC)cc(OC)c1` [compound 316], for which the EC50 is below 100 nM.
The same measure, in the same setting: with `COc1cc(OC)cc(N2C(N)=C(c3nc4ccccc4[nH]3)C(=O)C2CCOc2ccccc2)c1` (stereo not shown) [compound 231] the figure was 1000 to 10000 nM; with `CNC1=C(c2nc3ccccc3[nH]2)C(=O)C(C)(CO)N1c1cc(OC)cc(OC)c1` (stereo not shown) [compound 201], below 100 nM; with `CNC(=O)CC1C(=O)C(c2nc3ccccc3[nH]2)=C(N)N1c1cc(OC)cc(OC)c1` (stereo not shown) [compound 246], 1000 to 10000 nM.
Same read-out and setting: the value for `CNC1=C(c2nc3ccccc3[nH]2)C(=O)[C@](C)(COC)N1c1cc(OC)cc(OC)c1` [compound 297] was 100 to 1000 nM; that for `CNC1=C(c2nc3ccccc3[nH]2)C(=O)C(CCN)N1c1cc(OC)cc(OC)c1` (stereo not shown) [compound 253] was 100 to 1000 nM.
Consider `COc1cc(OC)cc(N2C(N)=C(c3nc4ccccc4[nH]3)C(=O)C23CN(S(C)(=O)=O)C3)c1` [compound 251], for which the EC50 is 100 to 1000 nM.
Same read-out and setting: with `COc1cc(OC)cc(N2C(N)=C(c3nc4ccccc4[nH]3)C(=O)[C@@]2(C)CCNC(C)=O)c1` [compound 302] the figure was 100 to 1000 nM; with `CNC1=C(c2nc3ccccc3[nH]2)C(=O)C2(CCOCC2)N1c1cc(OC)cc(OC)c1` [compound 226], 100 to 1000 nM; with `COc1cc(OC)cc(N2C(N)=C(c3nc4ccccc4[nH]3)C(=O)C23CN(C(=O)c2ccccc2)C3)c1` [compound 250], 1000 to 10000 nM.
The same measure, in the same setting: the value for `CNC1=C(c2nc3ccccc3[nH]2)C(=O)C(C)(c2ccco2)N1c1cc(OC)cc(OC)c1` (stereo not shown) [compound 278] was 100 to 1000 nM; that for `COc1cc(OC)cc(N2C(N)=C(c3nc4ccccc4[nH]3)C(=O)C2CCCO)c1` (stereo not shown) [compound 221] was 100 to 1000 nM; that for `COCC1(C)C(=O)C(c2nc3ccccc3[nH]2)=C(N)N1c1cc(OC)cc(OC)c1` (stereo not shown) [compound 296] was 100 to 1000 nM.
On the same count and under the same terms, with `[2H]C1CC2(CC1=O)C(=O)C(c1nc3ccccc3[nH]1)=C(NC)N2c1cc(OC)cc(OC)c1` (stereo not shown) [compound 314] the figure was below 100 nM; with `CNc1c(-c2nc3ccccc3[nH]2)c(=O)n(C2COC2)n1-c1cc(OC)cc(OC)c1` [compound 270], below 100 nM.
Consider `CNC1=C(c2nc3ccccc3[nH]2)C(=O)[C@](C)(CCO)N1c1cc(OC)cc(OC)c1` [compound 262], for which the EC50 is below 100 nM.
Same read-out and setting: with `CNC1=C(c2nc3ccccc3[nH]2)C(=O)C(C)(CCNC(=O)COC)N1c1cc(OC)cc(OC)c1` (stereo not shown) [compound 286] the figure was below 100 nM; with `COc1cc(OC)cc(N2C(N)=C(c3nc4ccccc4[nH]3)C(=O)C2(C)c2ccc(O)cc2)c1` (stereo not shown) [compound 209], 1000 to 10000 nM.
On the same count and under the same terms, the value for `COc1cc(OC)cc(N2C(N)=C(c3nc4ccccc4[nH]3)C(=O)[C@]23C[C@@H](O)C3)c1` [compound 206] was 100 to 1000 nM; that for `COc1cc(OC)cc(N2C(N)=C(c3nc4ccccc4[nH]3)C(=O)C2CCN(C)C(=O)c2ccccc2)c1` (stereo not shown) [compound 257] was 100 to 1000 nM.

Staying with this assay, now noted: class symbols; read-out: GTP Activity.
Regarding `COc1cc(OC)cc(N2C(N3CCCC3)=C(c3nc4ccccc4[nH]3)C(=O)C2(C)C)c1` [compound 144], the EC50 was 1000 to 10000 nM.
Same read-out and setting: the value for `CNC1=C(c2nc3ccccc3[nH]2)C(=O)C(C)(C)N1c1cc(O)cc(OC)c1` [compound 129] was 100 to 1000 nM; that for `COc1cc(OC)cc(N2CC(=O)C(c3nc4cc(C)ccc4[nH]3)=C2N)c1` [compound 6] was 1000 to 10000 nM; that for `COc1cccc(N2C(N)=C(c3nc4ccccc4[nH]3)C(=O)C2(C)C)c1` [compound 163] was 1000 to 10000 nM.
Take `COCCC1C(=O)C(c2nc3ccccc3[nH]2)=C(N)N1c1cc(OC)cc(OC)c1` (stereo not shown) [compound 69]: the EC50 was in the range of 100 to 1000 nM.
On the same count and under the same terms, the value for `C=CCNC1=C(c2nc3ccccc3[nH]2)C(=O)C(C)(C)N1c1cc(OC)cc(OC)c1` [compound 122] was 100 to 1000 nM.
Still for that read-out and setting: the value for `[2H]C([2H])([2H])Oc1cc(OC([2H])([2H])[2H])cc(N2C(N)=C(c3nc4ccccc4[nH]3)C(=O)C2(C)C)c1` [compound 135] was 100 to 1000 nM.
Same read-out and setting: the value for `COc1cc(OC)cc(N2CC(=O)C(c3cn4ccccc4n3)=C2N)c1` [compound 41] was 1000 to 10000 nM.
For `COc1cc(OC)cc(N2C(N)=C(c3nc4ccccc4[nH]3)C(=O)C23COC3)c1` [compound 191], the EC50 fell in the range of 100 to 1000 nM.
On to `COc1cc(OC)cc(N2CC(=O)C(c3nc4cc(OC)ccc4[nH]3)=C2N)c1` [compound 7], for which the EC50 lay within 1000 to 10000 nM.
For `COc1cc(OC)cc(N2C(N)=C(c3nc4ccccc4[nH]3)C(=O)C23CCNC3)c1` (stereo not shown) [compound 182], the EC50 lay within 100 to 1000 nM.
The same measure, in the same setting: with `COc1cc(OC)cc(-n2nc(N)c(-c3nc4ccccc4[nH]3)c2N)c1` [compound 66] the figure was 100 to 1000 nM; with `Cc1ccc(N2C(N)=C(c3nc4ccccc4[nH]3)C(=O)C2(C)C)c(C)c1` [compound 101], 100 to 1000 nM.
On the same count and under the same terms, the value for `CCOc1cc(OCC)cc(N2C(N)=C(c3nc4ccccc4[nH]3)C(=O)C2(C)C)c1` [compound 158] was 1000 to 10000 nM; that for `COc1ccc(OC)c(N2CC(=O)C(c3nc4c(C)cccc4[nH]3)=C2N)c1` [compound 16] was 1000 to 10000 nM.
The same measure, in the same setting: the value for `Cc1cc(C)cc(N2CC(=O)C(c3nc4c(C)cccc4[nH]3)=C2N)c1` [compound 14] was 1000 to 10000 nM.
Consider `COc1cc(OC)cc(N2CC(=O)C(c3nc4c(F)cccc4[nH]3)=C2N)c1` [compound 11], for which the EC50 lay within 1000 to 10000 nM.
The same measure, in the same setting: with `CNC1=C(c2nc3ccccc3[nH]2)C(=O)C2(CNC2)N1c1cc(OC)cc(OC)c1` [compound 192] the figure was 100 to 1000 nM.
As to `COc1cc(OC)cc(N2C(N)=C(c3nc4ccccc4[nH]3)C(=O)C23CNC3)c1` [compound 189], the EC50 is 1000 to 10000 nM.
As for `CC[C@]1(C)C(=O)C(c2nc3ccccc3[nH]2)=C(N)N1c1cc(OC)cc(OC)c1` [compound 84], the EC50 is 100 to 1000 nM.
The same measure, in the same setting: the value for `CCOc1cc(OC)cc(N2C(N)=C(c3nc4ccccc4[nH]3)C(=O)C2(C)C)c1` [compound 157] was 100 to 1000 nM; that for `CNc1c(-c2nc3ccccc3[nH]2)c(=O)n(C)n1-c1cc(OC)cc(OC)c1` [compound 140] was below 100 nM; that for `COc1cc(OC)cc(N2C(N)=C(c3nc4ccccc4[nH]3)C(=O)C2(C)O)c1` (stereo not shown) [compound 112] was 100 to 1000 nM.
The same measure, in the same setting: the value for `CCc1cc(OC)cc(N2C(N)=C(c3nc4ccccc4[nH]3)C(=O)C2(C)C)c1` [compound 155] was 100 to 1000 nM.
On the same count and under the same terms, the value for `COc1cc(OC)cc(N2C(N)=C(c3nc4ccccc4[nH]3)C(=O)C2CO)c1` (stereo not shown) [compound 67] was 1000 to 10000 nM.
Regarding `COc1cc(OC)cc(N2C(N)=C(c3nc4ccccc4[nH]3)C(=O)C2(C)OC)c1` (stereo not shown) [compound 119], the EC50 fell in the range of 1000 to 10000 nM.
Same read-out and setting: with `COc1cc(OC)cc(-n2c(N)c(-c3nc4ccccc4[nH]3)c(=O)n2C)c1` [compound 86] the figure was 100 to 1000 nM; with `COCCNC1=C(c2nc3ccccc3[nH]2)C(=O)C(C)(C)N1c1cc(OC)cc(OC)c1` [compound 91], 1000 to 10000 nM.
On to `CCC1(O)C(=O)C(c2nc3ccccc3[nH]2)=C(NC)N1c1cc(OC)cc(OC)c1` (stereo not shown) [compound 115], for which the EC50 lay within 100 to 1000 nM.
In the case of `COc1cc(OC)cc(N2C(N)=C(c3nc4ccccc4[nH]3)C(=O)[C@@H]2c2ccccc2)c1` [compound 106], the EC50 was 1000 to 10000 nM.
On to `CCc1cc(CC)cc(N2C(N)=C(c3nc4ccccc4[nH]3)C(=O)C2(C)C)c1` [compound 156], for which the EC50 was in the range of 100 to 1000 nM.
Same read-out and setting: the value for `COc1cc(OC)cc(N2C(N)=C(c3nc4ccccc4[nH]3)C(=O)C2(C)CO)c1` (stereo not shown) [compound 133] was 100 to 1000 nM; that for `CN(C)c1cccc(N2C(N)=C(c3nc4ccccc4[nH]3)C(=O)C2(C)C)c1` [compound 164] was 1000 to 10000 nM; that for `CNC1=C(c2nc3ccccc3[nH]2)C(=O)C(C)(C)N1c1ccc(C)cc1C` [compound 104] was 1000 to 10000 nM.
With `COc1ccc(OC)c(N2C(N)=C(c3nc4ccccc4[nH]3)C(=O)C2(C)C)c1` [compound 165], the EC50 lay in the range of 1000 to 10000 nM.
Regarding `Cc1ccc(C)c(N2CC(=O)C(c3nc4cc(C)ccc4[nH]3)=C2N)c1` [compound 15], the EC50 lay within 1000 to 10000 nM.
As to `COc1cc(OC)cc(-n2c(N)c(-c3nc4ccccc4[nH]3)c(=N)n2C)c1` [compound 110], the EC50 is 100 to 1000 nM.
`COc1cc(OC)cc(N2C(N)=C(c3nc4ccccc4[nH]3)C(=O)C2O)c1` (stereo not shown) [compound 57]: the EC50 was 100 to 1000 nM.

The record behind these values is patent US9580409B2, “Modulators of opioid receptors and methods of use thereof” (priority 2011, dated 2017).
